# Data as given in patent publication US5760036A, “Aminediol protease inhibitors” (E. R. Squibb & Sons, Inc., priority 1995, dated 1998).
# Where two headings read alike, the source gives them in different places.
# Tests used:
# [1] = molecular target: T1, HIV protease (Human immunodeficiency virus type 1 group M subtype B, UniProt P04585); assay: HIV Protease Assay; assay type: biochemical
# T1 construct: and purified protease
# Procedure, shortened: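 At a single final concentration of 10 μM (4% DMSO), inhibitors were added to a 30-minute, 37° C reaction of purified enzyme with 450 μM H2N-Val-Ser-Gln-Asn-(β-naphthyl-alanine)-Pro-Val-Ile-OH at pH 5.5 (sodium acetate, BSA). Hydrolysis was quantified by reverse-phase HPLC with 220 nm detection after acid quench.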
# [2] = tested on: RF strain of HIV (CEM-SS cells); assay: Cell Culture Anti-HIV Activity (cell viability, formazan); assay type: cell-based; details: Human immunodeficiency virus 1, CEM-SS, 144 h, CEM-SS cells, RF strain of HIV, multiplicity of infection 0.04, 6 days at 37° C., 450 nm; read-out: HIV (CEM Cells) IC50
# Procedure, shortened: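 Half-log compound dilutions added to CEM-SS cells (5000/well) carrying HIV RF (MOI 0.04), 6 days, 37° C. Cell protection measured as formazan from tetrazolium, A450. IC50: drug level restoring infected-cell formazan to 50% of the uninfected untreated control.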
# [3] = pH 5.5, 10 μM inhibitor, 4% DMSO, 450 μM substrate, pH 5.5, 30 minutes at 37° C., RP-HPLC, read-out: HIV Protease % Inhibition at 10 μM
"inhibition at 10 µM [1, 3] [%]","inhibition at 10 µM ([1]; pH 5.5, read-out: HIV Protease % Inhibition at 10 μM) [%]",Compound,IC50 [2] [µM]
98,–,"CC(C)(C)OC(=O)N[C@@H](Cc1ccccc1)[C@H](O)CNC[C@@H](O)[C@H](Cc1ccccc1)NC(=O)O[C@H]1CCc2ccccc21 [Compound 146, [1S-(1R*,2S*)]-[Iminobis[2-hydroxy-1-(phenylmethyl)-3,1-propanediyl)]biscarbamic acid, 1,1-dimethylethyl(S)-2,3-dihydro-1H-inden-1-yl ester]",≥ 3
95,–,"CC(C)(C)OC(=O)N[C@@H](Cc1ccccc1)[C@H](O)CNC[C@@H](O)[C@H](Cc1ccccc1)NC(=O)O[C@@H]1CCc2ccccc21 [Compound 145, [1S-(1R*,2S*)]-[Iminobis[2-hydroxy-1-(phenylmethyl)-3,1-propanediyl)]biscarbamic acid, 1,1-dimethylethyl(R)-2,3-dihydro-1H-inden-1-yl ester]",> 2.2
98,–,"CC(C)[C@H](NC(=O)OCCNc1ccccc1)C(=O)N[C@@H](Cc1ccccc1)[C@H](O)CNC[C@@H](O)[C@H](Cc1ccccc1)NC(=O)OC(C)(C)C (relative stereo) [Compound 203, [1R*,2S*(2S*,3R*)]-N-[3-[[3-[[(1,1-Dimethylethoxy)carbonyl]amino]-2-hydroxy-4-phenylbutyl]amino]-2-hydroxy-1-(phenylmethyl)propyl]-N^2-[[2-(phenylamino)ethoxy]carbonyl]-L-valinamide]",0.2
65,–,"CN(C(=O)OC(C)(C)C)[C@@H](Cc1ccccc1)[C@H](O)CNC[C@@H](O)[C@H](Cc1ccccc1)NC(=O)OC(C)(C)C [Compound 132, [1S-[1R*,2S*(2S*,3R*)]]-3-[[(1,1-Dimethylethoxy)carbonyl]amino]-2-hydroxy-4-phenylbutyl]amino]-2-hydroxy-1-(phenylmethyl)-propyl]methylcarbamic acid, 1,1-dimethylethyl ester]",> 3
99,–,"CC(C)[C@H](NC(=O)OCc1cc2ccccc2[nH]1)C(=O)N[C@@H](Cc1ccccc1)[C@H](O)CNC[C@@H](O)[C@H](Cc1ccccc1)NC(=O)OC(C)(C)C (relative stereo) [Compound 104, [1R*,2S*(2S*,3R*)]-N-[3-[[3-[[(1,1-dimethylethoxy)carbonyl]amino]-2-hydroxy-4-phenylbutyl]amino]-2-hydroxyl-1-(phenylmethyl)propyl]-N^2-[(1H-indol-2-ylmethoxy)carbonyl]-L-valinamide]",0.03
3,–,"CN(CC(=O)[C@H](Cc1ccccc1)NC(=O)OC(C)(C)C)C[C@H](O)[C@H](Cc1ccccc1)NC(=O)OC(C)(C)C [Compound 199, [1S-[1R*(2R*,3R*)]]-3-[[3[[-(1,1-Dimethylethoxy)carbonyl]-amino]-2-hydroxy-4-phenylbutyl]-methylamino]-2-oxo-1-(phenylmethyl)-propyl]carbamic acid, 1,1-dimethylethyl ester]",> 17
97,–,"CC(C)(C)OC(=O)N[C@@H](C/C=C/c1ccc(O)cc1)[C@H](O)CNC[C@@H](O)[C@H](Cc1ccccc1)NC(=O)OC(C)(C)C [Compound 235, [1S-[1R*,2S*[2S*,3R*(E)]]]-[3-[[3-[[(1,1-Dimethylethoxy)carbonyl]amino]-2-hydroxy-6-(4-hydroxyphenyl)-5-hexenyl]amino]-2-hydroxy-1-(phenylmethyl)propyl]carbamic acid, 1,1-dimethylethyl ester]",0.35
82,–,"CC(C)(C)OC(=O)N[C@@H](Cc1ccccc1)[C@H](O)CNC[C@@H](O)[C@H](Cc1ccccc1)NC(=O)OC(C)(C)CCCO [Compound 229, [R-(R*,S*)]-[Iminobis[2-hydroxy-1-(phenylmethyl)-3,1-propanediyl)]biscarbamic acid, 4-hydroxy-1,1-dimethyl-butyl 1,1-dimethylethyl ester]",0.6
98,–,"CC(C)[C@H](NC(=O)[C@H](Cc1ccccc1)NC(=O)OCc1ccccc1)C(=O)N[C@@H](Cc1ccccc1)[C@H](O)CNC[C@@H](O)[C@H](Cc1ccccc1)NC(=O)OC(C)(C)C [Compound 62, [1S-[1R*,2S*(2S*,3R*)]-N-[3-[[3-[[(1,1-Dimethylethoxy)carbonyl]amino]-2-hydroxy-4-phenylbutyl]amino]-2-hydroxy-1-(phenyl-methyl)propyl]-N^2-[(phenylmethoxy)carbonyl]-L-phenylalanyl]-L-valinamide]",0.05
97,–,"CC(C)(C)NC(=O)N[C@@H](Cc1ccccc1)[C@H](O)CNC[C@@H](O)[C@H](Cc1ccccc1)NC(=O)OC(C)(C)C [Compound 50, [1S-[1R*,2S*(2S*,3R*)]]-[3-[[3-[[[(1,1-Dimethylethyl)amino]carbonyl]amino]-2-hydroxy-4-phenylbutyl]amino]-2-hydroxy-1-(phenylmethyl)propyl]carbamic acid, 1,1-dimethylethyl ester]",0.22
99,–,"CC(C)(C)OC(=O)N[C@@H](Cc1ccccc1)[C@H](O)CNC[C@@H](O)[C@H](Cc1ccc(O)cc1)NC(=O)OC(C)(C)C [Compound 21, [1S-[1R*,2S*(2S*,3R*)]]-3-[[3-[[(1,1-Dimethylethoxy)carbonyl]amino]-2-hydroxy-4-(4-hydroxyphenyl)butyl]amino]-2-hydroxy-1-(phenylmethyl)propyl]carbamic acid, 1,1-dimethylethyl ester]",0.09
99,–,"CCC(=O)N[C@H](C(=O)N[C@@H](Cc1ccccc1)[C@H](O)CNC[C@@H](O)[C@H](Cc1ccccc1)NC(=O)OC(C)(C)C)C(C)C (relative stereo) [Compound 248, [1R*,2S*,(2S*,3R*)]-N-[3-[[3-[[(1,1-Dimethylethoxy)carbonyl]amino]-2-hydroxy-4-phenylbutyl]amino]-2-hydroxy-1-(phenylmethyl)propyl]-N^2-(1-oxopropyl)-L-valinamide]",0.23
98,–,"CC(C)[C@H](NC(=O)CC(O)CO)C(=O)N[C@@H](Cc1ccccc1)[C@H](O)CNC[C@@H](O)[C@H](Cc1ccccc1)NC(=O)OC(C)(C)C (relative stereo) [Compound 254, [1R*,2S*(2S*,3R*)]-N-[3-[[3-[[(1,1-Dimethylethoxy)carbonyl]amino]-2-hydroxy-4-phenylbutyl]amino]-2-hydroxy-1-(phenylmethyl)propyl]-N^2-(3,4-dihydroxy-1-oxobutyl)-L-valinamide]",17
–,99,"CC(C)(O)COc1ccc(C[C@H](NC(=O)OC(C)(C)C)[C@H](O)CNC[C@@H](O)[C@H](Cc2ccccc2)NC(=O)OC(C)(C)C)cc1 [Compound 358, [1S-[1R*,2S*(2S*,3R*)]]-[3-[[3-[[(1,1-Dimethylethoxy)carbonyl]amino]-2-hydroxy-4-[4-(2-hydroxy-2-methylpropoxy)phenyl]butyl]amino]-2-hydroxy-1-(phenylmethyl)propyl]carbamic acid, 1,1-dimethylethyl ester]",0.1
100,–,"CC(C)(C)OC(=O)N[C@@H](Cc1ccccc1)[C@H](O)CNC[C@@H](O)[C@H](Cc1ccccc1)NC(=O)[C@@H](NC(=O)OCc1cnc2ccccc2n1)C(C)(C)C [Compound 311, [S-[1R*,2S*(2S*,3R*)]]-[2.2-Dimethyl-1-[[[3-[[(1,1-dimethylethoxy)carbonyl]amino]-2-hydroxy-4-phenylbutyl]amino]-2-hydroxy-1-(phenylmethyl)-propyl]aminocarbonyl]propyl]carbamic acid, (2-quinoxalinyl)methyl ester]",0.05
99,–,"COC(=O)N[C@H](C(=O)N[C@@H](Cc1ccccc1)[C@H](O)CNC[C@@H](O)[C@H](Cc1ccc(OCCc2ccccn2)cc1)NC(=O)OC(C)(C)C)C(C)(C)C (relative stereo) [Compound 327, [1R*,2S*(2S*,3R*)-N-[3-[[3-[[(1,1-Dimethylethoxy)carbonyl]amino]-2-hydroxy-4-[4-[2-(2-pyridinyl)ethoxyl]phenyl]butyl]amino]-2-hydroxy-1-(phenylmethyl)propyl]-N^2-(methoxycarbonyl)-3-methyl-L-valinamide]",0.05
99,–,"CC(C)[C@H](NC(=O)[C@H](O)Cc1ccccc1)C(=O)N[C@@H](Cc1ccccc1)[C@H](O)CNC[C@@H](O)[C@H](Cc1ccccc1)NC(=O)OC(C)(C)C [Compound 78, [S-[1R*,2S*[2S*,3R*,N1S*]-N-[3-[[3-[[(1,1-Dimethylethoxy)carbonyl]amino]-2-hydroxy-4-phenylbutyl]amino]-2-hydroxy-1-(phenylmethyl)[propyl]-N^2-(2-hydroxy-1-oxo-3-phenyl-propyl)-L-valinamide]",0.16
91,–,"CC(OC(=O)N[C@@H](Cc1ccccc1)[C@H](O)CNC[C@@H](O)[C@H](Cc1ccccc1)NC(=O)OC(C)(C)C)c1cccnc1 (stereo partly drawn) [Compound 258, [R-(R*,S*)]-[Iminobis[2-hydroxy-1-(phenylmethyl)-3,1-propanediyl)]biscarbamic acid. 1,1-dimethylethyl-1-(3-pyridinyl)ethyl ester]",1.5
99,–,"CC(C)(C)OC(=O)N[C@@H](Cc1ccccc1)[C@H](O)CNC[C@@H](O)[C@H](Cc1ccc(OCCN2CCOCC2)cc1)NC(=O)OC(C)(C)C [Compound 175, [1S-[1R*,2S*(2S*,3R*)]]-[3-[[3-[[(1,1-Dimethylethoxy)carbonyl]amino]-2-hydroxy-4-(4-[2-(4-morpholinyl)ethoxyl-phenyl]butyl]amino]-2-hydroxy-1-(phenylmethyl)propyl]carbamic acid, 1,1-dimethylethyl ester]",0.03
